Results on three molecules are retold here after patent US4471116A, “Substituted (10H-phenothiazin-10-L)-propyl-1-piperazines” (Hoffmann-La Roche Inc., priority 1982, dated 1984).

Read-outs that look alike come from different tables or passages of the source. Some results are limits rather than exact numbers.

One data set relates to avoidance behavior. The data set is described as follows: Discrete Avoidance - Rats (avoidance block / escape block). It is filed as in vivo, rat. The text has this:
For example, by one procedure, trained rats are placed in experimental chambers equipped with a response lever, a steel grid floor for delivery of electric shock and a loudspeaker for presentation of auditory stimuli. […] The rats can terminate a trial at any point by depression of the response lever. A response during the initial fifteen-second warning tone ends the trial before shock delivery and is considered an avoidance response, while a response occurring during shock delivery is an escape response. Trials are presented every two minutes during a one-hour test session (30 trials per session). […] Compounds are administered to a minimum of three to four rats at each dose level over a range of doses. Rats receive vehicle alone, during control sessions prior to drug administration. Each rat is tested daily or weekly, after a single drug administration, until avoidance behavior returns to pre-drug baseline levels. The session is divided into three consecutive twenty minute (ten trial) segments. Response counts are summed over all subjects at a given dose within each segment. […] This number is expressed as a percentage of the total trials within the segment. […] The lowest dose which produced a 20% block of escape responding (EBD 20) is read from a graphic dose-effect plot. In obtaining these values, percent effect is plotted against the log dose.

A further data set concerns Continuous Avoidance. The data set is described as follows: Continuous Avoidance (Squirrel Monkeys). It counts as in vivo, squirrel monkey. The conditions noted are these: Primates; Squirrel Monkey, PO, 1 Hour Post-Drug; read-out: Continuous Avoidance MED Shocks.
Data set [1] has as its system Apomorphine Induced Emesis. Briefly: Apomorphine Induced Emesis antagonism (Dogs). It is filed as in vivo, dog. The conditions noted are these: Canis lupus familiaris; Dog, SC, 1 Hour Post-Drug; read-out: Anti-Apomorphine Emesis ED50.
Data set [2] concerns Amphetamine Induced Rotation. Briefly: Amphetamine Induced Rotation antagonism (S. Nigra Lesioned Rats) / Rotation Antagonism. It counts as in vivo, rat. The note with it: Rat, PO, 1 Hour Post-Drug.
In data set [3] the test system is Confinement Motor Activity. Briefly: Confinement Motor Activity. It is filed as in vivo. The conditions noted are these: Rat, PO, 1 Hour Post-Drug; read-out: Confinement Motor Activity DD50.
For data set [4], the system named is Dopamine Turnover-Brain Caudate. The data set is described as follows: Dopamine Turnover-Brain, Caudate. It is filed as in vivo. The conditions noted are these: Rat, 1 Hour Post-Drug.
Data set [5] has as its system Dopamine Turnover-Brain Limbic and Remainder. Briefly: Dopamine Turnover-Brain, Limbic and Remainder. It is filed as in vivo. The note with it: Rat, 1 Hour Post-Drug.
Data set [6] can be described thus: Acute toxicity (LD50) in mice after a single dose. The note with it: mouse, in vivo; for LD50 at 168 h: 7 days.
A further data set deals with revertant colonies. The data set is described as follows: Ames procedure (mutagenicity).
The test system of the next data set is Prolactin Secretion. The data set is described as follows: Prolactin Secretion (in-vitro). It counts as cell-based. The conditions noted are these: Rat, read-out: Prolactin Secretion ID50.

On to `O=C(CCCN1CCC(O)(c2ccc(Cl)cc2)CC1)c1ccc(F)cc1` [Haloperidol, haloperidol, reference compound], for which the ED50 was 0.35 mg/kg with avoidance behavior (Rat, PO, 1 Hour Post-Drug, read-out: Discrete Avoidance ABD50); 0.02 mg/kg in [1]; 0.35 mg/kg in [2]; 0.4 mg/kg in data set [3]. For the same molecule, the minimal effective dose in the data set with Continuous Avoidance was 0.28 mg/kg. For the same molecule, the “Dopamine Turnover-Brain, Caudate” value in data set [4] (1 mg/kg IP) is recorded as “Signif. .uparw”. Besides, in data set [5] (1 mg/kg IP), the “Dopamine Turnover-Brain, Limbic and Remainder” value is “Signif. .uparw”.
As a reminder, the LD50 is the dose expected to kill half of the subjects tested. Regarding `CC(C)Nc1ccc(OCCN2CCN(CCCN3c4ccccc4Sc4ccc(Cl)cc43)CC2)cc1.O=C(O)/C=C\C(=O)O` [Compound B, N-[4-[2-[4-[3-(2-chloro-10H-phenothiazin-10-yl)propyl]-1-piperazinyl]ethoxy]phenyl]-α-methylethaneamine (Z)-2-butenedioate], the “Duration of Sig. Activity” value with avoidance behavior (30 mg/kg po) is 3 days. The “Time of Peak Effect” value with avoidance behavior (30 mg/kg po) was 60 min. Moreover, the inhibition in vivo at 30 mg/kg turned out to be 100% with avoidance behavior (Rattus norvegicus, 1 h, 30 mg/kg po, 60 min. post-drug, read-out: Percentage Block of Avoidance, 60 min. post-drug); 70% with avoidance behavior (Rattus norvegicus, 30 mg/kg po, 24 hrs. post-drug, read-out: Percentage Block of Avoidance, 24 hrs. post-drug); 43% with avoidance behavior (Rattus norvegicus, 30 mg/kg po, at the indicated duration, read-out: Avoidance block at Duration of Sig. Activity (AB)); 100% in the data set with avoidance behavior (Rattus norvegicus, 30 mg/kg po, at time of peak effect, read-out: Avoidance block at Time of Peak Effect (AB)). Besides, the ED50 in the data set with avoidance behavior (Rattus norvegicus, po, 1 h, p.o., 60 minutes pretreatment, day of administration, read-out: ABD50) is 8.7 mg/kg. Moreover, the “duration of neuroleptic effect (in words)” value with avoidance behavior (discrete avoidance procedure) is listed as “several days”. Also, in the data set with avoidance behavior (p.o.), the “time of maximum neuroleptic activity (in words)” value is recorded as “on the day of administration”. The LD50 at 168 h was determined as 230 mg/kg in [6] (ip) and 248 mg/kg in [6] (po). For the same molecule, the LD50 at 24 h in [6] (po, 24 hours) was > 1000 mg/kg. For the same molecule, the “mutogenic effects (conclusion)” value in the data set with revertant colonies is on record as “free of mutogenic effects”. Moreover, the “revertant colonies (Ames)” value in the data set on revertant colonies is on record as “no increase in revertant colonies”.
With `CN(C)CCCN1c2ccccc2Sc2ccc(Cl)cc21` [Chlorpromazine, chlorpromazine, reference compound], the ED50 in the data set on avoidance behavior (Rattus norvegicus, po, 1 h, read-out: Discrete Avoidance ABD50) was found to be 5 mg/kg; in [1], 1.4 mg/kg; in [2], 20.5 mg/kg; in [3], 4.6 mg/kg. Further, the minimal effective dose in the data set on Continuous Avoidance came out at 2 mg/kg. For the same molecule, the “Dopamine Turnover-Brain, Caudate” value in [4] (10 mg/kg IP) is on record as “Signif. .uparw”. For the same molecule, in [5] (10 mg/kg IP), the “Dopamine Turnover-Brain, Limbic and Remainder” value is reported as “Signif. .uparw”. Besides, in the data set on Prolactin Secretion, the IC50 came to 130 nM.
